The conditions of data set [1]: no method or data given.
A further data set in a line: in vivo. The conditions noted are these: plasma. How it is done:
Eight to 12-week old male Sprague Dawley rats (Harlan) were fitted with a surgically implanted jugular vein catheter for sequential blood collection (Culex NxT Automated In Vivo Sampling System; BASi, West Lafayette, IN), and monitored daily. RTD-1 dissolved in saline was injected subcutaneously at 5 mg/kg to 4 animals. Approximately 200 μl of blood was collected before peptide administration and at 0.25, 0.5, 1, 2, 4, 6, 8, 12, 18, 24, 30, 36, 48, 60, and 72 h after RTD-1 injection. Blood was collected into vials containing K3EDTA and plasma was collected after centrifugation. Plasma concentrations of RTD-1 were determined after solid phase extraction (SPE) by weak cation exchange (Oasis WCX, Waters, Milford, MA) and quantitation by C18 RP-UPLC, photodiode array (PDA) detection, and electrospray-ionization mass spectrometry (ESI-MS). Chromatography was performed on an Acquity H-class UPLC with an analytical PDA detector using Empower 3 software (Waters). Quantitative mass spectrometry was performed on post PDA eluent using a Micromass Quattro Ultima mass spectrometer with MassLynx 4.1 (Waters). Pharmacokinetic analysis was performed using parametric population modeling with maximum likelihood estimation via the EM algorithm with sampling (MLEM) as implemented in the ADAPT 5 (Version 5.0.49) PK/PD Systems Analysis Software (Biomedical Simulations Resource, University of Southern California).

The target in another data set is Cathepsin H (Homo sapiens, UniProt P09668). The experiment in a line: biochemical. How it is done:
(§1) RTD-1 inhibition of Cat B (BPS Bioscience, San Diego, CA) and Cats C, H, K, L, S, and V (R & D Systems) was analyzed in a 96 well format with enzyme-specific substrates per manufacturer’s instructions and as described in Table 1. The activity of each enzyme was determined in the presence of 0 to 50 μg/ml RTD-1.
(§2) Inhibition of MMPs by RTD-1 was performed as described, incubating each enzyme with 0–100 μg/ml of RTD-1. IC50 values were calculated by GraphPad Prism 5.01 (GraphPad Software, San Diego, CA) utilizing a non-linear curve fit of log [inhibitor] versus response with variable slope.

In a further data set the target is Cathepsin K (Homo sapiens, UniProt P43235). Put plainly: biochemical. How it is done:
as §1, §2

For another data set, the target named is Cathepsin L (Homo sapiens, UniProt P07711). The experiment in a line: biochemical. How it is done: as §1, §2
In a further data set the target is Cathepsin B (Homo sapiens, UniProt P07858). Put plainly: biochemical. How it is done:
as §1, §2

A further data set addresses Cathepsin S (Homo sapiens, UniProt P25774). Put plainly: biochemical. How it is done:
as §1, §2

The target in a further data set is Cathepsin V (Homo sapiens, UniProt O60911). The experiment in a line: biochemical. How it is done:
as §1, §2

The next data set concerns the target Cathepsin C (Homo sapiens, UniProt P53634). Put plainly: biochemical. How it is done: as §1, §2
In the next data set the test system is DA-PIA-FLS. The experiment in a line: FLS proliferation (CyQuant). Type of data set: cell-based, DA rat. The note with it: RTD-1 0–30 μg/ml; 24 or 48 h in culture; DNA staining. How it is done:
(§3) Fibroblast-like synoviocytes (FLS) were isolated by enzymatic digestion of the synovial tissue from DA rats with PIA as previously described. Cells were washed and suspended in DMEM supplemented with 10% fetal bovine serum (Gibco, Grand Island, NY), 30 mg/ml L-glutamine (Sigma), 250 μg/ml amphotericin B (Sigma), and […] gentamicin (Gibco). After overnight culture, non-adherent cells were removed and adherent cells were cultured to approximately 70–90% confluence and passaged following detachment with 0.25% trypsin-EDTA for 3 min at 37°C. All experiments were performed with FLS after at least four passages.
All assays were performed with ≥ 7 replicates.

A further data set relates to anti-RTD-1 Ig. Put plainly: RTD-1 immunogenicity analysis (dot immunoblot). The class given is in vivo, DA and Sprague Dawley rats. The conditions noted are these: 8–42 s.c. injections of 5 mg/kg; serum or plasma. How it is done: Adult DA or Sprague-Dawley rats were challenged s.c. with 5 mg/kg RTD-1 every day (15–42 injections), or every other day (8 injections). Several animals were boosted 2 months later, prior to serum or plasma collection. Immune responses were analyzed by dot blot on nitrocellulose membranes as described in legend to the figure.

The subject of data set [2] is IL-6 production by fibroblast-like synoviocytes (FLS). The experiment in a line: Expression of IL-6 by stimulated FLS. Type of data set: cell-based, DA rat. The conditions noted are these: RTD-1 10 μg/ml; TNFα or IL-1β 3 or 10 ng/ml; 24 h; ELISA; n = 12, 3 experiments. How it is done:
as §3
FLS were cultured in 12-well plates at 4–6 × 10^4 cells/well for 24 h (viability > 95% by trypan blue staining). Medium was replaced and FLS were incubated with TNFα or IL-1β at final concentrations of 3 or 10 ng/ml plus RTD-1 (10 μg/ml in 0.01% acetic acid (HOAc)) or vehicle alone. After 24 h incubation, FLS culture supernatants were removed, clarified by centrifugation, and analyzed for IL-6 by ELISA (Invitrogen, Carlsbad, CA).

The next data set deals with joint IL-1β. The experiment in a line: Joint tissue cytokine analysis (IL-1β ELISA). The class given is in vivo, rat. The conditions noted are these: 5 mg/kg s.c. once a day for four days, PIA rats AS ≥ 3; ELISA of joint extract; P = 0.0054. How it is done:
Saline (control) and RTD-1 (5 mg/kg, s.c., qd) treated PIA rats were euthanized 4 days after disease onset (AS ≥ 3). The ankle joints and feet were snap frozen in liquid N2 and pulverized with mortar and pestle as described. One gram of tissue powder was extracted with 5 ml of ice cold 10 mM sodium phosphate, 150 mM NaCl, pH 7.4 (PBS) containing protease inhibitor tablets (cOmplete ULTRA with EDTA; Roche Diagnostics GmbH, Mannheim, Germany). Samples were vortexed for 30 seconds and extracts clarified by centrifugation. Supernatant IL-1β was quantified by ELISA (Life Technologies, Grand Island, NY).
In general terms: In an ELISA, binding on a coated surface is turned into a signal by an enzyme label.

The conditions of data set [3]: cited from earlier work.
Setting [4] is: male, Sprague Dawley, rat, sc, 5 mg/kg.
Where [5] appears, read: single 5 mg/kg s.c., male Sprague Dawley rats, n = 4, SPE, RP-UPLC/ESI-MS, 2-compartment population model.

Here are results for one molecule from article PMC5690597, “Suppression and resolution of autoimmune arthritis by rhesus θ-defensin-1, an immunomodulatory macrocyclic peptide” (PLoS ONE, 2017).

As usually defined, the half-life is the time in which the quantity being followed falls by half. The low end stands for rapid decline, the high end for slow decline. For orientation: IC50 means the concentration that inhibits the measured activity by half. A higher IC50 goes with weaker potency.

Structures are written as SMILES. Bridge positions count the residues as written; N and C are the ends. Peptide text beside a SMILES is read from it. Where only a bound is given, the exact number is not on record here.

Chain of Cathepsin K (P43235 115-329, species assumed): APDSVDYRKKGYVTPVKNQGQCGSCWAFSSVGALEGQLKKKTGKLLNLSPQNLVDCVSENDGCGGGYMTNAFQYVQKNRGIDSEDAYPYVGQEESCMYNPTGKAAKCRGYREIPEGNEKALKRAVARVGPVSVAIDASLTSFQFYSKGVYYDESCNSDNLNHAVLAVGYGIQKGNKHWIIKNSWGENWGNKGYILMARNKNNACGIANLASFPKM
Chain of Cathepsin C (P53634 25-463, species assumed): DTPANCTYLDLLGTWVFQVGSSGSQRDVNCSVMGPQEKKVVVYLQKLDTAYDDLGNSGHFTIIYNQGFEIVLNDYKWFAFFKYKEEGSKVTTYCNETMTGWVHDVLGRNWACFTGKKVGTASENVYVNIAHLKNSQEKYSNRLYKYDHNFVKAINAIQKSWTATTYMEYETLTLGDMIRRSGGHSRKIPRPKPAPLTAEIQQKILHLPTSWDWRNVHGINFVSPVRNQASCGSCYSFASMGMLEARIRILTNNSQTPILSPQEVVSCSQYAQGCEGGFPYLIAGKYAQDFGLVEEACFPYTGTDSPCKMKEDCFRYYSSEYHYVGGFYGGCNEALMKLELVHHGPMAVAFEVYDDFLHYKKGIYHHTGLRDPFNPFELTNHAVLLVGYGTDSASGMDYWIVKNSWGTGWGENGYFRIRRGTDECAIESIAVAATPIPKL
Chain of Cathepsin V (O60911 114-334): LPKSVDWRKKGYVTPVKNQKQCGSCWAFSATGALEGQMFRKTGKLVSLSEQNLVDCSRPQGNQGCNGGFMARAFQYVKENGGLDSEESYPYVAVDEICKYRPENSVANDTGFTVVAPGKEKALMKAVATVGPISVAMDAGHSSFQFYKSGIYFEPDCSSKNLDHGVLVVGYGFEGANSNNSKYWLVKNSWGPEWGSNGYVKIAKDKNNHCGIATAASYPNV
Chain of Cathepsin H (P09668 98-335, species assumed): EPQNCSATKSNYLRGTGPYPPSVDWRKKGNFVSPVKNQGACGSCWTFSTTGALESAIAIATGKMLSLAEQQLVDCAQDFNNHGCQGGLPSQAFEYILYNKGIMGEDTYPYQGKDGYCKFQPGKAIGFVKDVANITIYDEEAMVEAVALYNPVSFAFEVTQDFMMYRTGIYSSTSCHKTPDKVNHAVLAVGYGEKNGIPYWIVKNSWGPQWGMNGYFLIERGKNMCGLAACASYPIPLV
Chain of Cathepsin L (P07711 114-333, species assumed): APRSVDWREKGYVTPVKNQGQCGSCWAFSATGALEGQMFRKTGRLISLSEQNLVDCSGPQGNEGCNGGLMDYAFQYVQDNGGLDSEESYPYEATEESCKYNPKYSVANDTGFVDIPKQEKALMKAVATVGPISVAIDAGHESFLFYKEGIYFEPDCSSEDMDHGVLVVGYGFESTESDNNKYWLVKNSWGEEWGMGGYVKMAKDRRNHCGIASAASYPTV
Chain of Cathepsin S (P25774 115-331, species assumed): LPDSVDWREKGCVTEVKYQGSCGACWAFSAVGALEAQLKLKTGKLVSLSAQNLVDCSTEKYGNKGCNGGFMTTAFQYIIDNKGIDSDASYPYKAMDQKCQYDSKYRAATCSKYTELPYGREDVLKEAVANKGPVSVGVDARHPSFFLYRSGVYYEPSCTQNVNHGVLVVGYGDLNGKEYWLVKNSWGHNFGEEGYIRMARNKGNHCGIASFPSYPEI

Consider `CC[C@H](C)[C@@H]1NC(=O)[C@@H]2CSSC[C@H](NC(=O)[C@H](CCCNC(=N)N)NC(=O)[C@@H]3CSSC[C@H](NC1=O)C(=O)N[C@@H]([C@@H](C)O)C(=O)N[C@@H](CCCNC(=N)N)C(=O)NCC(=O)N[C@@H](Cc1ccccc1)C(=O)N3)C(=O)N[C@@H](CC(C)C)C(=O)N[C@H]1CSSC[C@H](NC(=O)[C@H](C(C)C)NC(=O)CNC(=O)[C@H](CCCNC(=N)N)NC(=O)[C@H](CCCNC(=N)N)NC1=O)C(=O)N[C@@H](CCCNC(=N)N)C(=O)N2` [RTD-1, rhesus θ-defensin 1] (cyclo(GFCRCLCRRGVCRCICTR); disulfide 3-16, 5-14, 7-12), for which the “stability in rat plasma” value in [1] was “highly stable”. The clearance in “in vivo” (setting [4]) is 3.55 mL/h/kg. Moreover, the half-life in “in vivo” (setting [4]) is 32.3 h. The molecule further came in with a distribution clearance in “in vivo” (setting [5]) of 22.3 mL/h/kg. For the same molecule, the distribution half-life in the data set “in vivo” (setting [5]) amounted to 0.285 h. Further, the IC50 against Cathepsin H was > 50000 nM; at Cathepsin K (IC50, substrate z-FR-AMC 10 μM, enzyme 0.77 nM, RTD-1 0-50 μg/ml), 27 ± 20 nM; against Cathepsin K (IC50 against cathepsin K, as quoted in running text from Table 1), ~27 nM; at Cathepsin L it was 1400 ± 300 nM; at Cathepsin B, 1000 ± 100 nM; against Cathepsin S, > 50000 nM. Besides, the IC50 on Cathepsin V was 1800 ± 600 nM; on Cathepsin C, 3700 ± 600 nM. Further, the “effect on FLS proliferation” value with DA-PIA-FLS was “dose-dependently suppressed FLS proliferation”. Also, the “humoral response (anti-RTD-1 Ig) by dot immunoblot” value in the data set with anti-RTD-1 Ig is “No anti-RTD-1 Ig was detected”. Moreover, in [2], the “reduction of IL-6 production by FLS” value is given as 27.3–42.2%. Moreover, the “average reduction of joint IL-1β vs vehicle” value in the data set with joint IL-1β is reported as 44%. Moreover, the “stability in human plasma” value in data set [3] is “highly stable”.
